Test results from patent publication US20190021992A1, “NEW IMPROVED COMPOSITION COMPRISING AT LEAST ONE CADOTRIL” (Johnson & Johnson Consumer Inc., priority 2016, published 2019).
Where “and” joins values, the source holds several entries; their conditions need not be identical. Equal values may be shown once.

Experiment: Oral administration pharmacokinetic studies in rats (thiorphan plasma concentration, HPLC)
Format: in vivo, Sprague Dawley rats
Method: Formulations were administered to rats at doses expected to be pharmacologically effective for estimation of the bioavailability. Blood was drawn at specified time points and plasma concentration of thiorphan was assessed.
Animals: Sprague Dawley rats, approximate weight 250 g. Animal preparation: Deprived of food (but not of water) during 18 h preceding dosing. Mode of administration: thiorphan (i.v.) and racecadotril (p.o.) by oral gavage. Blood sampling volume: 300 μl/per sample.
Blood was drawn at specified time points. Plasma was immediately frozen and kept at −80° C. for assessment of thiorphan concentration by HPLC.
Formulation nr. 8 (example 2) was administered to rats p.o. at dose of 20 mg/kg. One group of rats was given thiorphan i.v. at a dose of 13.4 mg/kg as a reference. […]

[1] = individual rats, thiorphan i.v. 13.4 mg/kg, 13.4 mg/kg

In the case of O=C(O)CNC(=O)C(CS)Cc1ccccc1 (centres unmarked) [Thiorphan, thiorphan], the AUC(0-inf) (Sprague Dawley, rat, plasma, iv, 13.4 mg/kg, average of 3 rats, thiorphan i.v. 13.4 mg/kg, read-out: AUCinf (thiorphan), Avg) is reported as 1710 ng·h/mL, the Cmax (Sprague Dawley, rat, plasma, iv, 13.4 mg/kg, individual rats, thiorphan i.v. 13.4 mg/kg) is reported as 15900 ng/mL and the Tmax (Sprague Dawley, rat, plasma, iv, individual rats, thiorphan i.v. 13.4 mg/kg) is reported as 1.98 min. For the same molecule, the “AUCinf (thiorphan)” value [1] was 2403 ng·h/mL and 1857 ng·h/mL and 871 ng·h/mL, the “AUCt (thiorphan)” value [1] was 2392 ng·h/mL and 1843 ng·h/mL and 857 ng·h/mL and the “Cmax (thiorphan)” value [1] was 17649 ng/mL and 21914 ng/mL. The “T_half (thiorphan)” value [1] was 1.31 h and 0.57 h and 1.81 h and the “Rel BA (%)” value (thiorphan i.v. 13.4 mg/kg (reference)) was 100%.
